Experimental findings from US20060084657A1, “Piperazine derivative” (priority 2001, published 2006) are described below.

This experiment addresses T1, human MC4 receptor (Homo sapiens, UniProt P32245).
T1 construct: purchased BioLinks K.K; host or cells: HEK-293 cell membranes
The experiment in a line: Test for binding to MC4 receptor. The following applies: HEK-293 cell membranes expressing the human MC4 receptor; [125I]Nle4-D-Phe7-α-MSH 0.2 nM; 25° C. for 120 minutes. How it is done:
The test for binding to MC4 receptor was carried out according to the method as described in Pharmacology & Toxicology, 79, 161-165, 1996. HEK-293 cell membranes expressing the human MC4 receptor were purchased from BioLinks K.K. The cell membranes were homogenized in a 50 mM Tris-hydrochloric buffer (pH 7.4) containing 2 mM ethylenediaminetetraacetic acid, 10 mM calcium chloride and 100 μM phenymethylsulfonyl fluoride. The homogenate was centrifuged at 48,000×g at 4° C. for 20 minutes. The precipitate obtained by centrifugation was re-homogenized in the same buffer, and then the homogenate was centrifuged at 48,000×g at 4° C. for 20 minutes. This manipulation was repeated twice. The precipitates were suspended in a 50 mM Tris-hydrochloric acid buffer (pH 7.4) containing 2 mM ethylenediaminetetraacetic acid, 10 mM calcium chloride, 100 μM phenymethylsulfonyl fluoride and 0.1% bovine serum albumin so as to provide a protein concentration of 100 μg/ml. The suspension was used for the binding test as a crude membrane specimen. The crude membrane specimen (0.25 ml, 25 μg protein) was allowed to react with [^125I]Nle^4-D-Phe^7-α-MSH (final concentration of 0.2 nM) at 25° C. for 120 minutes. […] Radioactivity on the filter papers was measured using a γ-counter. […] IC50 value was calculated from inhibition curve at concentrations of from 10^−8 to 10^−5.

SMILES strings stand for the structures.

T1 sequence (P32245 whole entry): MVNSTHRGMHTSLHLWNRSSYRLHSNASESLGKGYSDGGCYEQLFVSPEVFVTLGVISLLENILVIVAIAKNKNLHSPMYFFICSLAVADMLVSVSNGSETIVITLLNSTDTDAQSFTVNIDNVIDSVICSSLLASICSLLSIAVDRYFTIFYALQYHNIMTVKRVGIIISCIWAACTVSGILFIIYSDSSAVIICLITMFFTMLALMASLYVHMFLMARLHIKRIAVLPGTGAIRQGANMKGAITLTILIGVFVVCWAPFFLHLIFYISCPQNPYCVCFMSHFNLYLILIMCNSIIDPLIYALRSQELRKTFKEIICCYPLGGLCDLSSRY

In turn, `CC(C)N1CCN(C(CN2CCN(CCCc3sc(-c4ccccc4)nc3-c3ccccc3)CC2)c2ccc(F)cc2)CC1` (stereo not shown) [Compound 86] yielded a half-inhibitory concentration (IC50) of 162 nM.

By IC50 is commonly meant the concentration that gives 50% inhibition. A higher IC50 goes with a need for much substance.
